Results on one compound are retold here after patent EP0587106B1, “Compositions containing lipophilic salts having neutron activable cations” (VECTORPHARMA INTERNATIONAL S.p.A., priority 1992, dated 1994).

By solubility is commonly meant the dissolved amount per volume that the medium holds. Low readings indicate a poorly soluble substance, high ones a readily soluble substance.

Converted amounts (≈) assume the structure as drawn. A value given as a limit tells only on which side of the number the result lay.

The data set can be described thus: physchem.

For `CCCCCCCCCCCCCC(=O)O` [Samarium miristate, samarium miristate], the solubility at 24 h is, setting by setting: (pH 1.2) 90 µg/mL (≈ 394 µM); (pH 3) 8 µg/mL (≈ 35 µM); (pH 5.2) less than 2 µg/mL; (pH 7) less than 2 µg/mL.
